Data reported in patent publication US20150045291A1, “LIPOPEPTIDE CONJUGATES COMPRISING SPHINGOLIPID AND HIV GP41 DERIVED PEPTIDES” (priority 2012, published 2015).
Starred links: 1 amine or outer side, 2 acyl side, 3 side chain; linkers in the order of their positions; H or OH if unused. Residues, ends and D or L forms follow the SMILES beside them. Groups on a side chain read outwards from the residue. *: point of attachment. Sphinganine = CCCCCCCCCCCCCCC[C@@H](O)[C@H](CO)N*; X2 = CCCCCCCCCCCCC/C=C/[C@@H](O)[C@H](CO)N*; CO = O=C([*:1])[*:2]

tested on: fully infectious HIV-1 HXB2; conditions: fully infectious HIV-1 system (Table 2)

SMILES	IC50 [nM]
CC[C@H](C)[C@H](NC(=O)[C@H](CCCNC(=N)N)NC(=O)[C@H](C)NC(=O)[C@H](CC(C)C)NC(=O)[C@H](CC(C)C)NC(=O)[C@H](CCC(N)=O)NC(=O)[C@H](CCCCN)NC(=O)[C@@H](NC(=O)[C@H](CCCCN)NC(=O)[C@H](Cc1c[nH]c2ccccc12)NC(=O)[C@H](CCC(N)=O)NC(=O)[C@@H](NC(=O)[C@H](CC(C)C)NC(=O)[C@H](CCC(N)=O)NC(=O)[C@H](CC(C)C)NC(=O)[C@@H](N)CCC(=O)O)[C@@H](C)O)[C@@H](C)CC)C(=O)N[C@@H](CC(C)C)C(=O)N[C@@H](CCCCN)C(N)=O [N17mut (e, g) K, ELQLTQWKIKQLLARILK] (H-ELQLTQWKIKQLLARILK-NH2; C-terminus assumed)	> 4000
CCCCCCCCCCCCCCC[C@@H](O)[C@H](CO)NC(=O)N[C@@H](CCC(N)=O)C(=O)N[C@@H](CCCCN)C(=O)N[C@H](C(=O)N[C@@H](C)C(=O)N[C@@H](CCCNC(=N)N)C(=O)N[C@@H](CC(C)C)C(=O)N[C@@H](CCC(N)=O)C(=O)N[C@H](C(=O)N[C@@H](CC(C)C)C(=O)N[C@@H](Cc1c[nH]c2ccccc12)C(=O)N[C@@H](CC(C)C)C(=O)N[C@@H](CCC(N)=O)C(=O)N[C@H](C(=O)NCC(=O)N[C@H](C(=O)N[C@@H](CC(C)C)C(=O)N[C@@H](CC(C)C)C(N)=O)C(C)C)[C@@H](C)CC)[C@@H](C)O)[C@@H](C)CC [Sphing-N17 scrambled] ({Sphinganine-CO}-QKIARLQTLWLQIGVLL-NH2)	> 4000
CC[C@H](C)[C@H](NC(=O)CNC(=O)[C@H](Cc1c[nH]c2ccccc12)NC(=O)[C@@H](NC(=O)[C@@H](NC(=O)[C@H](CC(C)C)NC(=O)[C@H](CCC(N)=O)NC(=O)[C@H](CC(C)C)NC(=O)[C@@H](N)CC(C)C)[C@@H](C)O)C(C)C)C(=O)N[C@@H](CCCCN)C(=O)N[C@@H](CCC(N)=O)C(=O)N[C@@H](CC(C)C)C(=O)N[C@@H](CCC(N)=O)C(=O)N[C@@H](C)C(N)=O [N14, LLQLTVWGIKQLQA] (H-LLQLTVWGIKQLQA-NH2; C-terminus assumed)	> 4000
CC[C@H](C)[C@H](NC(=O)CNC(=O)[C@H](Cc1c[nH]c2ccccc12)NC(=O)[C@@H](NC(=O)[C@@H](NC(=O)[C@H](CC(C)C)NC(=O)[C@H](CCC(N)=O)NC(=O)[C@H](CC(C)C)NC(=O)[C@@H](N)CC(C)C)[C@@H](C)O)C(C)C)C(=O)N[C@@H](CCCCN)C(=O)N[C@@H](CCC(N)=O)C(=O)N[C@@H](CC(C)C)C(=O)N[C@@H](CCC(N)=O)C(=O)N[C@@H](C)C(=O)N[C@@H](CCCNC(=N)N)C(=O)N[C@H](C(=O)N[C@@H](CC(C)C)C(=O)N[C@@H](CCCCN)C(N)=O)[C@@H](C)CC [N17K, LLQLTVWGIKQLQARILK] (H-LLQLTVWGIKQLQARILK-NH2; C-terminus assumed)	> 4000
CCCCCCCCCCCCCCC[C@@H](O)[C@H](CO)NC(=O)N[C@@H](CCC(=O)O)C(=O)N[C@@H](CC(C)C)C(=O)N[C@@H](CCC(N)=O)C(=O)N[C@@H](CC(C)C)C(=O)N[C@H](C(=O)N[C@@H](CCC(N)=O)C(=O)N[C@@H](Cc1c[nH]c2ccccc12)C(=O)N[C@@H](CCCCN)C(=O)N[C@H](C(=O)N[C@@H](CCCCN)C(=O)N[C@@H](CCC(N)=O)C(=O)N[C@@H](CC(C)C)C(=O)N[C@@H](CC(C)C)C(=O)N[C@@H](C)C(=O)N[C@@H](CCCNC(=N)N)C(=O)N[C@H](C(=O)N[C@@H](CC(C)C)C(=O)N[C@@H](CCCCN)C(N)=O)[C@@H](C)CC)[C@@H](C)CC)[C@@H](C)O [Sphing-N17mut (e, g) K, Sphinganine-ELQLTQWKIKQLLARILK] ({Sphinganine-CO}-ELQLTQWKIKQLLARILK-NH2)	120 ± 30
CCCCCCCCCCCCCCC[C@@H](O)[C@H](CO)NC(=O)N[C@@H](CC(C)C)C(=O)N[C@@H](CC(C)C)C(=O)N[C@@H](CCC(N)=O)C(=O)N[C@@H](CC(C)C)C(=O)N[C@H](C(=O)N[C@H](C(=O)N[C@@H](Cc1c[nH]c2ccccc12)C(=O)NCC(=O)N[C@H](C(=O)N[C@@H](CCCCN)C(=O)N[C@@H](CCC(N)=O)C(=O)N[C@@H](CC(C)C)C(=O)N[C@@H](CCC(N)=O)C(=O)N[C@@H](C)C(=O)N[C@@H](CCCNC(=N)N)C(=O)N[C@H](C(=O)N[C@@H](CC(C)C)C(=O)N[C@@H](CCCCN)C(N)=O)[C@@H](C)CC)[C@@H](C)CC)C(C)C)[C@@H](C)O [Sphing-N17K, Sphinganine-LLQLTVWGIKQLQARILK] ({Sphinganine-CO}-LLQLTVWGIKQLQARILK-NH2)	118 ± 18
CC(C)C[C@H](NC(=O)[C@H](CCCNC(=N)N)NC(=O)[C@H](CCCNC(=N)N)NC(=O)[C@H](C)NC(=O)[C@H](CCC(N)=O)NC(=O)[C@H](CC(N)=O)NC(=O)[C@H](CCC(N)=O)NC(=O)[C@H](CCCCN)NC(=O)[C@H](CO)NC(=O)CNC(=O)[C@H](Cc1c[nH]c2ccccc12)NC(=O)[C@@H](NC(=O)[C@H](CO)NC(=O)[C@H](CC(C)C)NC(=O)[C@H](CCC(N)=O)NC(=O)[C@H](CCC(=O)O)NC(=O)[C@@H](N)CC(C)C)C(C)C)C(N)=O [N17mut (a, d), LEQLSVWGSKQNQARRL] (H-LEQLSVWGSKQNQARRL-NH2; C-terminus assumed)	> 4000
CCCCCCCCCCCCCCC[C@@H](O)[C@H](CO)NC(=O)N[C@@H](CC(C)C)C(=O)N[C@@H](CC(C)C)C(=O)N[C@@H](CCC(N)=O)C(=O)N[C@@H](CC(C)C)C(=O)N[C@H](C(=O)N[C@H](C(=O)N[C@@H](Cc1c[nH]c2ccccc12)C(=O)NCC(=O)N[C@H](C(=O)N[C@@H](CCCCN)C(=O)N[C@@H](CCC(N)=O)C(=O)N[C@@H](CC(C)C)C(=O)N[C@@H](CCC(N)=O)C(=O)N[C@@H](C)C(N)=O)[C@@H](C)CC)C(C)C)[C@@H](C)O [Sphing-N14, Sphinganine-LLQLTVWGIKQLQA] ({Sphinganine-CO}-LLQLTVWGIKQLQA-NH2)	500 ± 100
CCCCCCCCCCCCCCC[C@@H](O)[C@H](CO)NC(=O)N[C@@H](CC(C)C)C(=O)N[C@@H](CCC(N)=O)C(=O)N[C@@H](C)C(=O)N[C@@H](CCCNC(=N)N)C(=O)N[C@H](C(=O)N[C@@H](CC(C)C)C(=O)N[C@@H](C)C(=O)N[C@H](C(=O)N[C@@H](CCC(=O)O)C(=O)N[C@@H](CCCNC(=N)N)C(=O)N[C@@H](Cc1ccc(O)cc1)C(=O)N[C@@H](CC(C)C)C(=O)N[C@@H](CCCCN)C(=O)N[C@@H](CC(=O)O)C(=O)N[C@@H](CCC(N)=O)C(=O)N[C@@H](CCC(N)=O)C(=O)N[C@@H](CC(C)C)C(N)=O)C(C)C)[C@@H](C)CC [Sphing-ShN17, Sphinganine-LQARILAVERYLKDQQL] ({Sphinganine-CO}-LQARILAVERYLKDQQL-NH2)	886 ± 102

same assay, conditions: read-out: IC50 (inhibitory concentration at 50% infectivity); TZM-bl cells, fully contagious HXB2 HIV-1

SMILES	IC50 [nM]
CCCCCCCCCCCCCCC[C@@H](O)[C@H](CO)NC(=O)N[C@@H](CC(C)C)C(=O)N[C@@H](CC(C)C)C(=O)N[C@@H](CCC(N)=O)C(=O)N[C@@H](CC(C)C)C(=O)N[C@H](C(=O)N[C@H](C(=O)N[C@@H](Cc1c[nH]c2ccccc12)C(=O)NCC(=O)N[C@H](C(=O)N[C@@H](CCCCN)C(=O)N[C@@H](CCC(N)=O)C(=O)N[C@@H](CC(C)C)C(=O)N[C@@H](CCC(N)=O)C(=O)N[C@@H](C)C(=O)N[C@@H](CCCNC(=N)N)C(=O)N[C@H](C(=O)N[C@@H](CC(C)C)C(=O)N[C@@H](CCCCN)C(N)=O)[C@@H](C)CC)[C@@H](C)CC)C(C)C)[C@@H](C)O [Sphing-N17K, Sphinganine-LLQLTVWGIKQLQARILK] ({Sphinganine-CO}-LLQLTVWGIKQLQARILK-NH2)	116
CCCCCCCCCCCCC/C=C/[C@@H](O)[C@H](CO)NC(=O)N[C@@H](CC(C)C)C(=O)N[C@@H](CC(C)C)C(=O)N[C@@H](CCC(N)=O)C(=O)N[C@@H](CC(C)C)C(=O)N[C@H](C(=O)N[C@H](C(=O)N[C@@H](Cc1c[nH]c2ccccc12)C(=O)NCC(=O)N[C@H](C(=O)N[C@@H](CCCCN)C(=O)N[C@@H](CCC(N)=O)C(=O)N[C@@H](CC(C)C)C(=O)N[C@@H](CCC(N)=O)C(=O)N[C@@H](C)C(=O)N[C@@H](CCCNC(=N)N)C(=O)N[C@H](C(=O)N[C@@H](CC(C)C)C(N)=O)[C@@H](C)CC)[C@@H](C)CC)C(C)C)[C@@H](C)O [Sphingosine-N17, Sphingosine-LLQLTVWGIKQLQARIL] ({X2-CO}-LLQLTVWGIKQLQARIL-NH2)	208

same assay, conditions: read-out: IC50 (nM), […]; fully infectious HIV-1 system (Table 3)

SMILES	IC50 [nM]
CCCCCCCCCCCCCCC[C@@H](O)[C@H](CO)NC(=O)NCCCC[C@H](NC(=O)[C@H](CC(N)=O)NC(=O)[C@H](Cc1c[nH]c2ccccc12)NC(=O)[C@H](CCSC)NC(=O)[C@H](Cc1ccc(O)cc1)NC(=O)[C@H](CC(N)=O)NC(=O)[C@@H](NC(=O)[C@H](CC(=O)O)NC(=O)[C@H](CCC(=O)O)NC(=O)[C@H](CCCNC(=N)N)NC(=O)[C@H](Cc1c[nH]c2ccccc12)NC(=O)[C@@H](NC(=O)[C@H](CCC(=O)O)NC(=O)[C@@H](NC(=O)[C@@H](N)[C@@H](C)O)[C@@H](C)O)[C@@H](C)CC)[C@@H](C)O)C(N)=O [Scrambled-Sphing, TTEIWREDTNYMWNK-sphing] (H-TTEIWREDTNYMWNK([CO-Sphinganine])-NH2; N-terminus assumed)	895 ± 70

same assay, conditions: read-out: IC90 (nM), […]; fully infectious HIV-1 system (Table 3)

SMILES	IC90 [nM]
CCCCCCCCCCCCCCC[C@@H](O)[C@H](CO)NC(=O)NCCCC[C@H](NC(=O)[C@H](CC(N)=O)NC(=O)[C@H](Cc1c[nH]c2ccccc12)NC(=O)[C@H](CCSC)NC(=O)[C@H](Cc1ccc(O)cc1)NC(=O)[C@H](CC(N)=O)NC(=O)[C@@H](NC(=O)[C@H](CC(=O)O)NC(=O)[C@H](CCC(=O)O)NC(=O)[C@H](CCCNC(=N)N)NC(=O)[C@H](Cc1c[nH]c2ccccc12)NC(=O)[C@@H](NC(=O)[C@H](CCC(=O)O)NC(=O)[C@@H](NC(=O)[C@@H](N)[C@@H](C)O)[C@@H](C)O)[C@@H](C)CC)[C@@H](C)O)C(N)=O [Scrambled-Sphing, TTEIWREDTNYMWNK-sphing] (H-TTEIWREDTNYMWNK([CO-Sphinganine])-NH2; N-terminus assumed)	6260 ± 3670
